Measurements: BindingDB's records for doi:10.1074/jbc.M113.497990 (Vanderbilt University, 2013)

How the values were obtained:
Cytochrome P450 2D6 = Cytochrome P450 2D6 (Homo sapiens, UniProt P10635); assay: CYP Activity Assay; settings: 37 °C
Protocol: (§1) Inhibition of hepatic cytochromes P450 was assessed in human liver microsomes using a substrate-specific approach of monitoring metabolites formed by each specific CYP enzyme. Metabolic reactions included phenacetin-O-deethylation (1A2), tolbutamide methylhydroxylation (2C9), S-mephenytoin 4'-hydroxylation (2C19), dextrome-thorphan-[…] (2D6), and testosterone-6-β-hydroxylation (3A4). Each substrate was added at a concentration less than or equal to the Km for themetabolic pathway, and microsomal protein concentrations and assay incubation times were optimized for each reaction to ensure linear metabolite formation based on initial rates (Table 1). Microsomes were suspended in phosphate buffer and incubated at 37 °C in the presence of probe substrates. Reactions were initiated by the addition of an NADPH-regenerating buffer system and were quenched at the appropriate times using acetonitrile. Samples were centrifuged and concentrations of metabolites assessed by LC/MS.

Cytochrome P450 2C19 = Cytochrome P450 2C19 (Homo sapiens, UniProt P33261); assay: CYP Activity Assay; settings: 37 °C
Chain of Cytochrome P450 2C19 (P33261 whole entry): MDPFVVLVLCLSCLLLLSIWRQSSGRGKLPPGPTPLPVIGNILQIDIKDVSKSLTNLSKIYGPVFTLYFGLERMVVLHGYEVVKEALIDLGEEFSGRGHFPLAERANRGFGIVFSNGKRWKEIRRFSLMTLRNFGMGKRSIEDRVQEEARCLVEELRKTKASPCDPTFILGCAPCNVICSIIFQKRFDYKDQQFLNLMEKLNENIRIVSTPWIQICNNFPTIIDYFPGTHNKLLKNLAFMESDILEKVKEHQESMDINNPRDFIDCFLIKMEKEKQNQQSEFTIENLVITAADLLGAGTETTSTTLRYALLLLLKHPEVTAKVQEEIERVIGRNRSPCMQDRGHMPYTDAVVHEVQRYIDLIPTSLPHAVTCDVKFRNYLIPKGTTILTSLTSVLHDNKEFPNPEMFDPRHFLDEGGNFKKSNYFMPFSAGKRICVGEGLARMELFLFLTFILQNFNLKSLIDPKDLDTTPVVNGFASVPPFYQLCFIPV
Protocol: as §1

Cytochrome P450 2C9 = Cytochrome P450 2C9 (Homo sapiens, UniProt P11712); assay: CYP Activity Assay; settings: 37 °C
Chain of Cytochrome P450 2C9 (P11712 whole entry): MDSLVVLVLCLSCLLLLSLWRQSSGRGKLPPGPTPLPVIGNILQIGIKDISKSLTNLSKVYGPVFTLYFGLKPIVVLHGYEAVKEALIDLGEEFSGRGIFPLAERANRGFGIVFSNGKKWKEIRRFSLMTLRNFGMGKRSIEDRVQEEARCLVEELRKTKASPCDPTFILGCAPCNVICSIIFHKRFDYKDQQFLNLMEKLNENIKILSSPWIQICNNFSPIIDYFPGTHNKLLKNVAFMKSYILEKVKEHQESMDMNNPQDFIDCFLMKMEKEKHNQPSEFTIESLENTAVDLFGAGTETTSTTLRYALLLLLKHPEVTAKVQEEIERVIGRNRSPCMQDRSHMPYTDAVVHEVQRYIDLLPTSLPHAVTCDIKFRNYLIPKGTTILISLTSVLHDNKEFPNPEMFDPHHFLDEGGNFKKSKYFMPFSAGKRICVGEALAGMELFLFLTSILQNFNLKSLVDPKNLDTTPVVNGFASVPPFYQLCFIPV
Protocol: as §1

Cytochrome P450 1A2 = biological target: T1, Cytochrome P450 1A2 (Homo sapiens, UniProt P05177); assay: CYP Activity Assay; settings: 37 °C
T1 sequence (P05177 whole entry): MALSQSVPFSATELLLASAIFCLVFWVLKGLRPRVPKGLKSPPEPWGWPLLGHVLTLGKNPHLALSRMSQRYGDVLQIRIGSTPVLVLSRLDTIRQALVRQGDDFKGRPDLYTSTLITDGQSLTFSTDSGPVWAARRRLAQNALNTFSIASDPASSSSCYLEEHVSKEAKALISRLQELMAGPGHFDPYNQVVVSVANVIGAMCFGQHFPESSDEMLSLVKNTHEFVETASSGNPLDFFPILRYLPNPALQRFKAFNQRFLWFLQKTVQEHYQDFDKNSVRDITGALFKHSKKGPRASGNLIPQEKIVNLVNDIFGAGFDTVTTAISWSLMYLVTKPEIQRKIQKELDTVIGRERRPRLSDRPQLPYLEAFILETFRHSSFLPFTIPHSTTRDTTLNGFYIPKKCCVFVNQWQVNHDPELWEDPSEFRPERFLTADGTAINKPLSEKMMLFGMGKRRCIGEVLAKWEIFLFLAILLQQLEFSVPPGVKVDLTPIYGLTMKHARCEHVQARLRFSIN
Protocol: as §1

[1] = biological target: Putative lanosterol 14-alpha-demethylase (Leishmania infantum, UniProt A2TEF2); assay: CYP51 Inhibition Assay; settings: pH 7.4; 37 °C
Chain of Putative lanosterol 14-alpha-demethylase (A2TEF2 whole entry): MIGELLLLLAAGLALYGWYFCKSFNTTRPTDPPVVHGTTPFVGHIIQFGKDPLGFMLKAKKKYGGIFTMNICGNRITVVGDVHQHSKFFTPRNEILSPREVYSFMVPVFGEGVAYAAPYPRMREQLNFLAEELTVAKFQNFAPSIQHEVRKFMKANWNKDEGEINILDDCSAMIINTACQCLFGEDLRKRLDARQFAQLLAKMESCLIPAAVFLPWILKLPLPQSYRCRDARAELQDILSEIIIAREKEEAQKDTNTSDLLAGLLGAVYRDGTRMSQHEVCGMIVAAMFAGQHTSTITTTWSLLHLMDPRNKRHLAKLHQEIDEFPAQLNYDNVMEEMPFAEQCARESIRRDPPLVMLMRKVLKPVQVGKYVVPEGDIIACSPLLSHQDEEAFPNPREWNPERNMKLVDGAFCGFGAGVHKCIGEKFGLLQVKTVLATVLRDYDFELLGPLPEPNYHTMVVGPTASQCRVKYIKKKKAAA
Protocol: (§2) Briefly, the reaction mixture contained 1 uM CYP51, 2 uM cytochrome P450 reductase, 100 uM dilauroyl-alpha-phosphatidylcholine, 0.4 mg/ml isoctrate dehydrogenase, and 25mM sodium isocitrate in 20mM MOPS (pH 7.4), 50 mM KCl, 5 mM MgCl2, and 10% glycerol. After the addition of the 3H-radiolabeled sterol substrate (~2000 cpm/nmol, final concentration 50 uM) the mixture was preincubated for 5 min at 37 °C in a shaking water bath (GCA Precision Scientific). The reaction was initiated by the addition of 100 uM NADPH and stopped by extraction of the sterols with ethyl acetate. The reaction products were dried, dissolved in methanol, and analyzed by a reverse-phase HPLC system (Waters) equipped with a beta-RAM detector (INUS Systems, Inc.) using a Nova-Pak C18 column (particle size 4 uM, 3.9 x 150 mm) and a linear gradient consisting of water:acetonitrile:methanol (1.0:4.5:4.5) (solvent A) and methanol (solvent B) at a flow rate of 1 ml/min.

[2] = biological target: Sterol 14-alpha demethylase (Trypanosoma cruzi (strain CL Brener), UniProt Q7Z1V1); assay: CYP51 Inhibition Assay; settings: pH 7.4; 37 °C
Chain of Sterol 14-alpha demethylase (Q7Z1V1 whole entry): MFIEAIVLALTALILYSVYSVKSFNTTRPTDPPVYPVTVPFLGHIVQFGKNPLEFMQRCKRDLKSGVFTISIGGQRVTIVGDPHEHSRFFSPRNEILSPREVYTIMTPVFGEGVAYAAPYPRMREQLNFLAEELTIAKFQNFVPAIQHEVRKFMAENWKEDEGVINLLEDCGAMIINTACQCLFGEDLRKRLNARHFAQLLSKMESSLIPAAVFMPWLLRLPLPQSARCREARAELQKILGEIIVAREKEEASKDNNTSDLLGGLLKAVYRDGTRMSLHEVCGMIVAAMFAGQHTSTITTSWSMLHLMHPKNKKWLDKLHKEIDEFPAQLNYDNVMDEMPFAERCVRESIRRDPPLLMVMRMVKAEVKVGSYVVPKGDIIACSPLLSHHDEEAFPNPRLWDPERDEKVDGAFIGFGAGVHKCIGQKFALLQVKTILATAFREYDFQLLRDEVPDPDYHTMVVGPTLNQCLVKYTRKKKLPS
Protocol: as §2

[3] = biological target: T2, Lanosterol 14-alpha demethylase (Homo sapiens, UniProt Q16850); assay: CYP51 Inhibition Assay; settings: pH 7.4; 37 °C
T2 sequence (Q16850 whole entry): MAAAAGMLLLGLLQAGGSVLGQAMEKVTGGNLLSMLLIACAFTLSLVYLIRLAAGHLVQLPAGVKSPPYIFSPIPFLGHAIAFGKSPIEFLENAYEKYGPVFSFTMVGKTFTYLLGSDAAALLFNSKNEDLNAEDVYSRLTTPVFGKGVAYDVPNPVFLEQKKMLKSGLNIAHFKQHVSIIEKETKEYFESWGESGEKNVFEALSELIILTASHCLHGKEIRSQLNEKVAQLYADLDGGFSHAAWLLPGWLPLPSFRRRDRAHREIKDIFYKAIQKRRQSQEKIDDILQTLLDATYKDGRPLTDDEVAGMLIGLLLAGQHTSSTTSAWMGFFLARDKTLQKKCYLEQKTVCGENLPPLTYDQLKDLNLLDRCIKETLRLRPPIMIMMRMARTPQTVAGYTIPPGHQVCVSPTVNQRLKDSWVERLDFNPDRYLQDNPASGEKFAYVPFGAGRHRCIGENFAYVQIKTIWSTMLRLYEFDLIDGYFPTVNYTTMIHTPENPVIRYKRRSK
Protocol: as §2

Cytochrome P450 3A4 = Cytochrome P450 3A4 (Homo sapiens, UniProt P08684); assay: CYP Activity Assay; settings: 37 °C
Chain of Cytochrome P450 3A4 (P08684 whole entry): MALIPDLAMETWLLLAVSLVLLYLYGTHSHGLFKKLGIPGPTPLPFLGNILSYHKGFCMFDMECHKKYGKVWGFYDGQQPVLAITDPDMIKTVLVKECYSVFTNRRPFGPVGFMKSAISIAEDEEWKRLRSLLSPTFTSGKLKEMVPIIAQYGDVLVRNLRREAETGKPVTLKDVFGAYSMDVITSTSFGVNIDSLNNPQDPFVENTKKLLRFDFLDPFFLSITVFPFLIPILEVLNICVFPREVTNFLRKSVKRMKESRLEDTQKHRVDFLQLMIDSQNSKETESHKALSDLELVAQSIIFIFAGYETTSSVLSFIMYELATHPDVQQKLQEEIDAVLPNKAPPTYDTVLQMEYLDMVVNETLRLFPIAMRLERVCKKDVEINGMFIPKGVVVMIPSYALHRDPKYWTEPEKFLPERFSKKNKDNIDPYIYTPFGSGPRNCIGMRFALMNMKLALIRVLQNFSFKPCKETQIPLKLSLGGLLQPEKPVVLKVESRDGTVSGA
Protocol: as §1

Chain of Cytochrome P450 2D6 (P10635 whole entry): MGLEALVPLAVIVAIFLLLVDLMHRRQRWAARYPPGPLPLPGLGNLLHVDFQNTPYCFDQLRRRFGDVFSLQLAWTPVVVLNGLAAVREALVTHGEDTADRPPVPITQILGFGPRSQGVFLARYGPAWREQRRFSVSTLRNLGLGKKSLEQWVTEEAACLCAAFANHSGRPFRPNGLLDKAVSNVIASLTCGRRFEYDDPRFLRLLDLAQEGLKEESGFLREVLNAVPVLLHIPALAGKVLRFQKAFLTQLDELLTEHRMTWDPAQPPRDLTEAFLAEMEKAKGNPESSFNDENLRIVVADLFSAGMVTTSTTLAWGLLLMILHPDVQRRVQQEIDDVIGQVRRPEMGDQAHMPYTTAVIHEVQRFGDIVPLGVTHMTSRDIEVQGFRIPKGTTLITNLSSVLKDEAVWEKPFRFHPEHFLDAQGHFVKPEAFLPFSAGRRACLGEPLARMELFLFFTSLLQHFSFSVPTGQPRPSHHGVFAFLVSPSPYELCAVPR

Compound	IC50 (Cytochrome P450 2D6) [µM]	IC50 (Cytochrome P450 2C19) [µM]	IC50 (Cytochrome P450 2C9) [µM]	IC50 (Cytochrome P450 1A2) [µM]	Kd [1] [nM]	Kd [2] [nM]	Kd [3] [nM]	IC50 (Cytochrome P450 3A4) [µM]
FC(F)(F)c1ccc(N(c2cccnc2)C2CCN(c3ccc(C(F)(F)F)cn3)CC2)cc1 [EPL-BS0967 (UDD)]	20	9.8	8.1	> 20	419	32	26	
O=C([C@@H](c1ccc(Cl)cc1)c1cccnc1)N1CCN(c2ccc(C(F)(F)F)cc2)CC1 [EPL-BS1246 (UDO)]	4	12	9	> 20	156	19	69	20
CC[C@@H]([C@H](C)O)n1ncn(-c2ccc(N3CCN(c4ccc(OCC5CO[C@@](Cn6cncn6)(c6ccc(F)cc6F)C5)cc4)CC3)cc2)c1=O (some centres not stated) [Posaconazole]					18			
O=C(N[C@@H](Cn1ccnc1)c1ccc(Cl)cc1Cl)c1ccc(-c2nnc(-c3ccccc3)o2)cc1 [VNI]						15		
